# From publication PMC7143510, “In Vitro Efficiency of Antimicrobial Peptides against Staphylococcal Pathogens Associated with Canine Pyoderma” (Animals : an Open Access Journal from MDPI, 2020)
# Where no end group is shown, it is not given here.
# Assays:
# [1] = tested on: canine S. pseudintermedius strains; assay: MIC, broth microdilution (CLSI); type: cell-based, Staphylococcus pseudintermedius
# Procedure: (§1) Sixty-six well-characterized staphylococcal strains (60 S. pseudintermedius and 6 S. aureus strains) were selected from the archived previously described collection. This study was conducted based on a retrospective analysis of staphylococcal canine strains isolated and archived at the Laboratory of Department of Medical Microbiology of MUG during routine clinical laboratory procedures. All samples were routinely collected by a veterinarian during the course of infection treatment or control visits, not specifically for this research. The animals were swabbed only after the owner’s consent was given, as we stated in the previous published study.
# (§2) Staphylococcal strains were classified as multidrug-resistant (MDR) when they were not susceptible to at least one agent in three different classes of antimicrobials. Sixty examined S. pseudintermedius strains included thirty multidrug-resistant strains (MDRSP) and seven methicillin-resistant strains (MRSP). Six canine S. aureus strains, including three multidrug-resistant strains (MDRSA). S. pseudintermedius strains, including MDRSP (n = 30) and MRSP (7) strains, were resistant to: amoxicillin (61.6%), clindamycin (48.3%), erythromycin (45%), gentamicin (33.3%), chloramphenicol (26.6%), sulfamethoxazole/trimethoprim (25%), tetracycline (20%), cefadroxil (11.6%), oxacillin (11.6%) and ciprofloxacin (10%). Six S. aureus strains, including MDRSA (n = 3), were resistant to: amoxicillin (3/6), erythromycin (3/6), gentamicin (3/6), clindamycin (2/6), chloramphenicol (1/6), sulfamethoxazole/trimethoprim (1/6) and doxycycline (1/6). The following reference strains were used: S. aureus ATCC 6538 (MSSA), S. aureus ATCC 43300 (MRSA), S. intermedius PCM 2405. Both the reference- and clinical strains were stored at −80 °C in Tryptic Soy Broth (TSB, Becton–Dickinson, USA) supplemented with 15% glycerol.
# (§3) The antimicrobial susceptibility of each strain to the tested peptides was determined using the minimal inhibitory concentrations (MIC) microdilution method as recommended by the Clinical Laboratory Standards Institute (CLSI) guidelines. Briefly, the staphylococcal strains were grown overnight on a Columbia blood agar (Graso Biotech, Poland) at 37 °C. Isolated colonies were suspended in saline solution and adjusted to a 0.5 McFarland standard. The bacterial suspension was diluted ~ 1:100 to a final concentration of 1 × 10^6 colony forming units (cfu/mL). Two-fold serial dilutions of each tested peptide in Mueller–Hinton Broth 2 (Sigma–Aldrich) were added (100 µL) to polypropylene 96-well plates containing bacterial inoculum (100 µL) and were incubated at 37 °C for 18 h. All clinical and reference strains were tested in duplicate. Bacterial growth was assessed visually after incubation and MIC was recorded as the lowest drug concentration at which an observable growth was inhibited. The MIC50 and MIC90 values were defined as the lowest concentrations of peptides at which 50% and 90% of the strains were inhibited, respectively.
# [2] = tested on: canine S. pseudintermedius strains; assay: MBC, subculture from MIC assay; type: cell-based, Staphylococcus pseudintermedius; settings: 48 h
# Procedure: (§4) The loopful (10 µl) of the tested sample was transferred to Triptic Soy Broth (TSB, BD Difco) and incubated at 37 °C for 48 h. MBC was taken as the lowest concentration of each peptide at which staphylococcal colonies were no longer viable on the subculture.
# canine S. aureus strains [3] = assay: MBC, subculture from MIC assay; type: cell-based, Staphylococcus aureus; settings: 48 h
# Procedure: as §4
# canine S. aureus strains [4] = assay: MIC, broth microdilution (CLSI); type: cell-based, Staphylococcus aureus
# Procedure: as §1, §2, §3
# [5] = canine S. pseudintermedius (I), 60 strains, Mueller–Hinton Broth 2, 1 × 10^6 cfu/mL, 37 °C, 18 h, visual, duplicate
# [6] = canine S. pseudintermedius (I), 60 strains, lowest concentration inhibiting 50% of strains
# [7] = canine S. pseudintermedius (I), 60 strains, lowest concentration inhibiting 90% of strains
# [8] = canine S. pseudintermedius (I), 60 strains, 10 µl subcultured in TSB, 37 °C
# [9] = canine S. aureus (II), 6 strains, 10 µl subcultured in TSB, 37 °C
# [10] = canine S. aureus (II), 6 strains, Mueller–Hinton Broth 2, 1 × 10^6 cfu/mL, 37 °C, 18 h, visual, duplicate
# [11] = canine S. aureus (II), 6 strains, lowest concentration inhibiting 50% of strains
# [12] = canine S. aureus (II), 6 strains, lowest concentration inhibiting 90% of strains
Substance,"MIC Median (IQR) [1, 5]","MIC50 [1, 6] [µg/mL]","MIC90 [1, 7] [µg/mL]","MBC Median (IQR) [2, 8]",MBC Median (IQR) (canine S. aureus strains [3]; [9]),MIC Median (IQR) (canine S. aureus strains [4]; [10]),MIC50 (canine S. aureus strains [4]; [11]) [µg/mL],MIC90 (canine S. aureus strains [4]; [12]) [µg/mL],MIC50 ([1]; 18 h) [µg/mL],MIC90 ([1]; 18 h) [µg/mL],MIC Median (IQR) ([1]; 18 h),MBC Median (IQR) [2],MBC Median (IQR) (canine S. aureus strains [3]; canine strains),"MIC50 (canine S. aureus strains [4]; canine strains, 18 h) [µg/mL]","MIC90 (canine S. aureus strains [4]; canine strains, 18 h) [µg/mL]","MIC Median (IQR) (canine S. aureus strains [4]; canine strains, 18 h)"
GLFDIIKKIAESF-NH2 [Aurein 1.2],32 (32–32) µg/mL,32,32,64 (64–64) µg/mL,128 (128–224) µg/mL,128 (128–128) µg/mL,128,256,–,–,–,–,–,–,–,–
FLPLIGRVLSGIL-NH2 [Temporin A],–,–,–,–,–,–,–,–,8,8,8 (4–8) µg/mL,8 (8–8) µg/mL,8 (8–14) µg/mL,8,8,8 (8–8) µg/mL
GIGKFLKKAKKFGKAFVKILKK-NH2 [Pexiganan],–,–,–,–,–,–,–,–,4,4,4 (2–4) µg/mL,4 (2–4) µg/mL,8 (8–8) µg/mL,4,8,6 (4–8) µg/mL
GVIDAAKKVVNVLKNLF-NH2 [Uperin 3.6],–,–,–,–,–,–,–,–,2,2,2 (2–2) µg/mL,2 (2–4) µg/mL,16 (16–16) µg/mL,8,16,8 (8–14) µg/mL
GLFDVIKKVASVIGGL-NH2 [Citropin 1.1],–,–,–,–,–,–,–,–,4,4,4 (4–4) µg/mL,4 (4–4) µg/mL,12 (8–16) µg/mL,8,16,8 (8–14) µg/mL
KWKLFKKIGAVLKVL-NH2 [CAMEL],2 (2–4) µg/mL,2,4,4 (2–4) µg/mL,4 (4–4) µg/mL,4 (4–4) µg/mL,4,4,–,–,–,–,–,–,–,–
